From patent US12071624B2, “Antisense oligonucleotide targeting ARL4C molecule, and nucleic acid drug using antisense oligonucleotide” (OSAKA UNIVERSITY, priority 2018, dated 2024) come the findings set out here.

For the series, the system named is ARL4C mRNA. The series is described as follows: Screening of ARL4C ASO knockdown efficiency by real-time PCR in A549 cells. The class given is cell-based, human. To be noted: screening of 38 types of ARL4C ASOs. As for the experimental part:
HLE cells, HCT116 cells, and A549 cells were transfected with 25 to 50 nM ASO and 10 to 20 nM siRNA using Lipofectamine 3000 (Invitrogen, Carlsbad, CA, USA) or RNAiMAX (Invitrogen). Transfected cells were used in the experiments 36 to 48 hours after the end of the transfection.
Cell migration assays and quantitative real-time PCR analyses were performed according to the methods reported by Fujii S et al. (Oncogene 2015; 34: 4834-44).
First, base sequences of 15-nucleotide ARL4C were selected based on the structure of ARL4C mRNA. From thousands of ARL4C ASO candidates, those that may cause hepatotoxicity were excluded, and 38 types of ARL4C ASOs (those other than ASO-1312, ASO-1450 and ASO-3223 among the ASOs in Table 1) were selected, by high-dimensional structure prediction of ARL4C mRNA. The ASOs used in this test were those in which all of the phosphodiester bonds were substituted with phosphorothioate bonds. Knockdown efficiencies of ARL4C ASOs in A549 cells (lung adenocarcinoma cells) were investigated by screening experiments using real-time PCR. It has been confirmed that the protein abundance of ARL4C in A549 cells is reduced by treatment with ARL4C siRNA. The ARL4C mRNA amounts in A549 cells treated with 38 types of ARL4C ASOs were measured, and the results are shown in (a) of FIG. 3.
For “ASO-986: 15-mer ARL4C ASO of Table 1, SEQ ID NO 10 (antisense NNNTCATAGAGCNNG; AmNA modifications; Amido-bridged nucleic acid (AmNA); modified_base (1)..(1) n is Adenine having a structure of AmNA (2′,4′- bridged nucleotide in which R is a methyl group); (1)..(3) n is a, c, g, or t; modified_base (2)..(2) n is 5-methylcytosine having a structure of AmNA (2′,4′-bridged nucleotide in which R is a methyl group); modified_base (3)..(3) n is Thymine having a structure of AmNA (2′,4′- bridged nucleot)”, the “knockdown efficiency (ARL4C mRNA amount)” value is recorded as “high knockdown efficiencies”.

As for “ASO-1065: 15-mer ARL4C ASO of Table 1, SEQ ID NO 11 (antisense NNNAAATCAGACNNC; AmNA modifications; Amido-bridged nucleic acid (AmNA); modified_base (1)..(1) n is Guanine having a structure of AmNA (2′,4′- bridged nucleotide in which R is a methyl group); (1)..(3) n is a, c, g, or t; modified_base (2)..(2) n is Guanine having a structure of AmNA (2′,4′- bridged nucleotide in which R is a methyl group); modified_base (3)..(3) n is Thymine having a structure of AmNA (2′,4′- bridged nucleotide in w)”, the “knockdown efficiency (ARL4C mRNA amount)” value was “high knockdown efficiencies”.

For the substance “ASO-793: 15-mer ARL4C ASO of Table 1, SEQ ID NO 9 (antisense NNNTGGTCACCTNNT; AmNA modifications; Amido-bridged nucleic acid (AmNA); modified_base (1)..(1) n is Adenine having a structure of AmNA (2′,4′- bridged nucleotide in which R is a methyl group); (1)..(3) n is a, c, g, or t; modified_base (2)..(2) n is 5-methylcytosine having a structure of AmNA (2′,4′-bridged nucleotide in which R is a methyl group); modified_base (3)..(3) n is Thymine having a structure of AmNA (2′,4′- bridged nucleot)”, the “knockdown efficiency (ARL4C mRNA amount)” value is listed as “high knockdown efficiencies”.

For the substance “ASO-650: 15-mer ARL4C ASO of Table 1, SEQ ID NO 8 (antisense NNNTGGCAGCTGNNG; AmNA modifications; Amido-bridged nucleic acid (AmNA); modified_base (1)..(1) n is Adenine having a structure of AmNA (2′,4′- bridged nucleotide in which R is a methyl group); (1)..(3) n is a, c, g, or t; modified_base (2)..(2) n is Adenine having a structure of AmNA (2′,4′- bridged nucleotide in which R is a methyl group); modified_base (3)..(3) n is Guanine having a structure of AmNA (2′,4′- bridged nucleotide in w)”, the “knockdown efficiency (ARL4C mRNA amount)” value was “high knockdown efficiencies”.
